Biological target: GLP-1 Receptor (Homo sapiens, UniProt P43220)
Assay: GLP-1R agonist cAMP stimulation assay (HEK293/GLP1R/CRE-LUC cells, cAMP dynamic 2 Kit)
Type: cell-based
Conditions: HEK293/CRE-Luc cell line stably expressing the GLP-1 Receptor, 30 min at 37° C.
Outline: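 cAMP measured by HTRF competition (d2-labelled cAMP with cryptate antibody, 1 h, room temperature, protected from light). Before that, GLP1R/CRE-Luc HEK293 cells (1000/well) were exposed for 30 min at 37 °C to half-log compound dilutions in DPBS containing IBMX 0.5 mM and BSA 0.1%.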

Chain of GLP-1 Receptor (P43220 24-463, species assumed): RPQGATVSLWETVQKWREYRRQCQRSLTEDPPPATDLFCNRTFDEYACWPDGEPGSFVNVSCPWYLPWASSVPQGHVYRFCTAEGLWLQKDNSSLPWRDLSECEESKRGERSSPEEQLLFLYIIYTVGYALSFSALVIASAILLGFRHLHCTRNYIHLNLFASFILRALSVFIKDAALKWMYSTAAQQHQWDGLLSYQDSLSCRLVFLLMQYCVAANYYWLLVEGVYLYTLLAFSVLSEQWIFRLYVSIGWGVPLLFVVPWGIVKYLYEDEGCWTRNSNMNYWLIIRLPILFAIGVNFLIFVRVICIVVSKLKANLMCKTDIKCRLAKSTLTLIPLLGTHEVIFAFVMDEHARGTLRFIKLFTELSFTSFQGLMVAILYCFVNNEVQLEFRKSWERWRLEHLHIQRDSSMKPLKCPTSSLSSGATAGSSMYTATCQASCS

Structure (SMILES)	EC50
C[C@]1(c2ccc(Cl)cc2F)Oc2cccc(C3CCN(Cc4nc5cc(-c6nnn[nH]6)ncc5n4C[C@@H]4CCO4)CC3)c2O1 [Compound 417a, 4-[(2S)-2-(4-chloro-2-fluorophenyl)-2-methyl-2H-1,3-benzodioxol-4-yl]-1-[(3-{[(2S)-oxetan-2-yl]methyl}-6-(1H-1,2,3,4-tetrazol-5-yl)-3H-imidazo[4,5-c]pyridin-2-yl)methyl]piperidine]	0.0065 nM
Cc1ccc(C(=O)Nc2ccc3c(c2)nc(CN2CCC(c4cccc(OCc5ccc(Cl)cc5F)n4)CC2)n3C[C@@H]2CCO2)cn1 [Compound 173a, N-{2-[(4-{6-[(4-chloro-2-fluorophenyl)methoxy]pyridin-2-yl}piperidin-1-yl)methyl]-1-{[(2S)-oxetan-2-yl]methyl}-1H-1,3-benzodiazol-5-yl}-6-methylpyridine-3-carboxamide]	0.26 nM
CC1(c2ccc(Cl)cc2F)Oc2cccc(C3CCN(Cc4nc5cc(-c6noc(=O)[nH]6)ccc5n4C[C@@H]4CCO4)CC3)c2O1 (single isomer, unassigned) [Compound 239b]	0.04 nM
CC1(c2ccc(Cl)cc2F)Oc2cccc(C3CCN(Cc4nc5cc(-c6noc(=O)[nH]6)cnc5n4C[C@H]4CCCO4)CC3)c2O1 (stereo partly drawn) [Compound 399a, 3-[2-({4-[2-(4-chloro-2-fluorophenyl)-2-methyl-2H-1,3-benzodioxol-4-yl]piperidin-1-yl}methyl)-3-{[(2R)-oxolan-2-yl]methyl}-3H-imidazo[4,5-b]pyridin-6-yl]-4,5-dihydro-1,2,4-oxadiazol-5-one]	17 nM
CC1(c2ccc(F)cc2)Oc2cccc(C3CCN(Cc4nc5cc(-c6nnc(C(F)(F)F)[nH]6)ccc5n4C[C@@H]4CCO4)CC3)c2O1 (stereo partly drawn) [Compound 258a, 2-({4-[2-(4-fluorophenyl)-2-methyl-2H-1,3-benzodioxol-4-yl]piperidin-1-yl}methyl)-1-{[(2S)-oxetan-2-yl]methyl}-5-[5-(trifluoromethyl)-4H-1,2,4-triazol-3-yl]-1H-1,3-benzodiazole]	0.16 nM
Cc1nnc(-c2cc3nc(CN4CCC(c5cccc6c5O[C@@](C)(c5ccc(Cl)cn5)O6)CC4)n(C[C@@H]4CCO4)c3nn2)[nH]1 [Compound 477a, 5-chloro-2-[(2S)-2-methyl-4-(1-{[3-(5-methyl-4H-1,2,4-triazol-3-yl)-7-{[(2S)-oxetan-2-yl]methyl}-7H-imidazo[4,5-c]pyridazin-6-yl]methyl}piperidin-4-yl)-2H-1,3-benzodioxol-2-yl]pyridine]	0.98 nM
Fc1cc(Cl)ccc1COc1cc(C2=CCN(Cc3nc4cc(-c5nnc(C(F)(F)F)[nH]5)cnc4n3C[C@@H]3CCO3)CC2)ccc1F [Compound 294a, 4-{3-[(4-chloro-2-fluorophenyl)methoxy]-4-fluorophenyl}-1-[(3-{[(2S)-oxetan-2-yl]methyl}-6-[5-(trifluoromethyl)-4H-1,2,4-triazol-3-yl]-3H-imidazo[4,5-b]pyridin-2-yl)methyl]-1,2,3,6-tetrahydropyridine]	0.47 nM
Fc1cc(Cl)ccc1[C@H]1COc2cccc(C3CCN(Cc4nc5cc(-c6nnc(C(F)(F)F)[nH]6)nnc5n4C[C@@H]4CCO4)CC3)c2O1 [Compound 523a, 4-[(3S)-3-(4-chloro-2-fluorophenyl)-2,3-dihydro-1,4-benzodioxin-5-yl]-1-[(7-{[(2S)-oxetan-2-yl]methyl}-3-[5-(trifluoromethyl)-4H-1,2,4-triazol-3-yl]-7H-imidazo[4,5-c]pyridazin-6-yl)methyl]piperidine]	0.14 nM
CC1(C(=O)Nc2ccc3c(c2)nc(CN2CCC(c4cccc(OCc5ccc(Cl)cc5F)n4)CC2)n3C[C@@H]2CCO2)CCCCO1 (stereo partly drawn) [Compound 183a, N-{2-[(4-{6-[(4-chloro-2-fluorophenyl)methoxy]pyridin-2-yl}piperidin-1-yl)methyl]-1-{[(2S)-oxetan-2-yl]methyl}-1H-1,3-benzodiazol-5-yl}-2-methyloxane-2-carboxamide]	4 nM
Fc1cc(Cl)ccc1COc1cccc(C2CCN(Cc3nc4cc(-c5nnc(C(F)(F)F)[nH]5)cnc4n3C[C@@H]3CCO3)CC2)n1 [Compound 327a, 2-[(4-chloro-2-fluorophenyl)methoxy]-6-{1-[(3-{[(2S)-oxetan-2-yl]methyl}-6-[5-(trifluoromethyl)-4H-1,2,4-triazol-3-yl]-3H-imidazo[4,5-b]pyridin-2-yl)methyl]piperidin-4-yl}pyridine]	0.013 nM
Fc1cc(Cl)ccc1COc1nc(N2CCN(Cc3nc4cc(-c5nnc(C(F)(F)F)[nH]5)cnc4n3C[C@@H]3CCO3)CC2)ccc1F [Compound 516a, 1-{6-[(4-chloro-2-fluorophenyl)methoxy]-5-fluoropyridin-2-yl}-4-[(3-{[(2S)-oxetan-2-yl]methyl}-6-[5-(trifluoromethyl)-4H-1,2,4-triazol-3-yl]-3H-imidazo[4,5-b]pyridin-2-yl)methyl]piperazine]	0.018 nM
CCc1nnc(-c2cnc3c(c2)nc(CN2CCC(c4cccc5c4O[C@@](C)(c4ccc(Cl)cc4F)O5)CC2)n3C[C@@H]2CCO2)[nH]1 [Compound 352a, 4-[(2S)-2-(4-chloro-2-fluorophenyl)-2-methyl-2H-1,3-benzodioxol-4-yl]-1-{[6-(5-ethyl-4H-1,2,4-triazol-3-yl)-3-{[(2S)-oxetan-2-yl]methyl}-3H-imidazo[4,5-b]pyridin-2-yl]methyl}piperidine]	0.43 nM
Fc1cc(Cl)ccc1COc1nccc(C2CCN(Cc3nc4cc(-c5nnc(C(F)(F)F)[nH]5)ncc4n3C[C@@H]3CCO3)CC2)n1 [Compound 505a, 2-[(4-chloro-2-fluorophenyl)methoxy]-4-{1-[(3-{[(2S)-oxetan-2-yl]methyl}-6-[5-(trifluoromethyl)-4H-1,2,4-triazol-3-yl]-3H-imidazo[4,5-c]pyridin-2-yl)methyl]piperidin-4-yl}pyrimidine]	0.045 nM
C[C@]1(c2ccc(Cl)cn2)Oc2cccc(C3CCN(Cc4nc5cc(-c6nnc(C#N)[nH]6)ncc5n4C[C@@H]4CCO4)CC3)c2O1 [Compound 481a, 5-[2-({4-[(2S)-2-(5-chloropyridin-2-yl)-2-methyl-2H-1,3-benzodioxol-4-yl]piperidin-1-yl}methyl)-3-{[(2S)-oxetan-2-yl]methyl}-3H-imidazo[4,5-c]pyridin-6-yl]-4H-1,2,4-triazole-3-carbonitrile]	0.0048 nM
C[C@]1(c2ccc(Cl)cn2)Oc2cccc(C3CCN(Cc4nc5cc(C(=O)O)nnc5n4C[C@@H]4CCO4)CC3)c2O1 [Compound 464a, 6-({4-[(2S)-2-(5-chloropyridin-2-yl)-2-methyl-2H-1,3-benzodioxol-4-yl]piperidin-1-yl}methyl)-7-{[(2S)-oxetan-2-yl]methyl}-7H-imidazo[4,5-c]pyridazine-3-carboxylic acid]	0.76 nM
CC1(c2ccc(Cl)cc2F)Oc2cccc(C3CCN(Cc4nc5cc(-c6nnc(C(F)(F)F)[nH]6)ccc5n4C[C@@H]4CCO4)CC3)c2O1 (single isomer, unassigned) [Compound 229b]	8.9 nM
CC1(c2ccc(Cl)cn2)Oc2cccc(C3CCN(Cc4nc5cc(-c6n[nH]c(C(F)(F)F)n6)ncc5n4C[C@@H]4CCO4)CC3)c2O1 (stereo partly drawn) [Compound 344a, 5-chloro-2-(2-methyl-4-{1-[(3-{[(2S)-oxetan-2-yl]methyl}-6-[5-(trifluoromethyl)-4H-1,2,4-triazol-3-yl]-3H-imidazo[4,5-c]pyridin-2-yl)methyl]piperidin-4-yl}-2H-1,3-benzodioxol-2-yl)pyridine]	0.022 nM
Fc1cc(Cl)ccc1COc1nc(C2CCN(Cc3nc4cc(-c5nnc(C(F)(F)F)[nH]5)cnc4n3C[C@@H]3CCO3)CC2)ncc1F [Compound 504a, 4-[(4-chloro-2-fluorophenyl)methoxy]-5-fluoro-2-{1-[(3-{[(2S)-oxetan-2-yl]methyl}-6-[5-(trifluoromethyl)-4H-1,2,4-triazol-3-yl]-3H-imidazo[4,5-b]pyridin-2-yl)methyl]piperidin-4-yl}pyrimidine]	0.092 nM
Fc1cc(Cl)ccc1COc1cccc(C2CCN(Cc3nc4cc(/C=C/c5cccnc5)ccc4n3C[C@@H]3CCO3)CC2)n1 [Compound 217a, 2-[(4-{6-[(4-chloro-2-fluorophenyl)methoxy]pyridin-2-yl}piperidin-1-yl)methyl]-1-{[(2S)-oxetan-2-yl]methyl}-5-[(E)-2-(pyridin-3-yl)ethenyl]-1H-1,3-benzodiazole]	4.6 nM
CO[C@H](C)Cn1c(CN2CCC(c3cccc4c3O[C@@](C)(c3ccc(Cl)cn3)O4)CC2)nc2cc(-c3nnn[nH]3)ncc21 [Compound 429a, 5-chloro-2-[(2S)-4-[1-({3-[(2R)-2-methoxypropyl]-6-(1H-1,2,3,4-tetrazol-5-yl)-3H-imidazo[4,5-c]pyridin-2-yl}methyl)piperidin-4-yl]-2-methyl-2H-1,3-benzodioxol-2-yl]pyridine]	0.24 nM
Fc1cc(Cl)ccc1COc1cccc(C2CCN(Cc3nc4cc(-c5nnn[nH]5)ccc4n3C[C@@H]3CCO3)CC2)n1 [Compound 125a, 2-[(4-{6-[(4-chloro-2-fluorophenyl)methoxy]pyridin-2-yl}piperidin-1-yl)methyl]-1-{[(2S)-oxetan-2-yl]methyl}-5-(1H-1,2,3,4-tetrazol-5-yl)-1H-1,3-benzodiazole]	0.056 nM
Fc1cc(Cl)ccc1C1COc2cccc(C3CCN(Cc4nc5cc(-c6nnc(C(F)(F)F)[nH]6)ncc5n4C[C@@H]4CCO4)CC3)c2O1 (stereo partly drawn) [Compound 457a, 4-[3-(4-chloro-2-fluorophenyl)-2,3-dihydro-1,4-benzodioxin-5-yl]-1-[(3-{[(2S)-oxetan-2-yl]methyl}-6-[5-(trifluoromethyl)-4H-1,2,4-triazol-3-yl]-3H-imidazo[4,5-c]pyridin-2-yl)methyl]piperidine]	0.12 nM
Fc1cc(Cl)ccc1COc1cccc(C2=CCN(Cc3nc4cc(-c5nnc(C(F)(F)F)[nH]5)cnc4n3C[C@@H]3CCO3)CC2)n1 [Compound 323a, 6-[(4-chloro-2-fluorophenyl)methoxy]-1′-[(3-{[(2S)-oxetan-2-yl]methyl}-6-[5-(trifluoromethyl)-4H-1,2,4-triazol-3-yl]-3H-imidazo[4,5-b]pyridin-2-yl)methyl]-1′,2′,3′,6′-tetrahydro-2,4′-bipyridine]	0.016 nM

Reference: patent US20230391760A1, “HETEROCYCLIC GLP-1 AGONISTS” (Gasherbrum Bio, Inc., priority 2020, published 2023)
